Assay results: patent US10513523B2, “Imidazopyrazines and pyrazolopyrimidines and their use as AMPA receptor modulators” (Janssen Pharmaceutica NV, priority 2015, dated 2019)

Target: GluA1o-γ8 (GRIA1o-CACNG8 fusion construct; TARP γ8 dependent AMPA receptor) (Homo sapiens (Human), UniProt P42261+Q8WXS5)
Experiment: Calcium flux assay (FLIPR), inhibition of glutamate response of GluA1o-γ8 channel
Type: cell-based
Conditions: HEK293 cells stably expressing GRIA1o-CACNG8 fusion; 15 μM glutamate; pIC50 = negative log of IC50 in molar; read-out: GluR1-γ8 (pIC50) (converted)
From the text: This assay was used to test compounds for their ability to inhibit TARP γ8 dependent AMPA receptor activity. The AMPA receptor is a non-selective cation channel activated by glutamate. Ionotropic glutamate receptors normally desensitize too rapidly to allow detectable calcium influx in a FLIPR assay (Strange et al. (2006). “Functional characterisation of homomeric ionotropic glutamate receptors GluR1-GluR6 in a fluorescence-based high throughput screening assay.” Comb Chem High Throughput Screen 9(2): 147-158). But, this desensitization is incomplete, and a substantial steady-state current remains in the sustained presence of glutamate (Cho et al. (2007). “Two families of TARP isoforms that have distinct effects on the kinetic properties of AMPA receptors and synaptic currents.” Neuron 55(6): 890-904).
An in vitro assay was used to determine the potency of test compounds as inhibitors of the glutamate response of the channel formed by GluA1o-γ8. To ensure a 1:1 stoichiometry of GluA10 and γ8 subunits in the expressed channel, a fusion of the cDNAs for GRIA1o and CACNG8 was used. Following Shi et al (2009) “The stoichiometry of AMPA receptors and TARPs varies by neuronal cell type.” Neuron 62(5): […]), the C-terminus of the cDNA for GRI1o was fused to the N-terminus of the cDNA for γ8. The linker sequence was […]. […] A clonal cell line in HEK293 cells stably expressing this construct, with a geneticin selection marker, was generated for use in this assay. Cell expressing the GRIA1o-CACNG8 fusion construct were grown in a monolayer in 96- or 384-well microtiter plates. They were washed with assay buffer (135 mM NaCl, 4 mM KCl, 3 mM CaCl2, 1 mM MgCl2, 5 mM glucose, 10 mM HEPES, pH 7.4, 300 mOs) using a Biotek EL405 plate washer. The cells were then loaded with a calcium-sensitive dye (Calcium-5 or Calcium-6, Molecular Devices) and the test compounds at a range of concentrations. Calcium flux following the addition of 15 μM glutamate was monitored using a Molecular Devices FLIPR Tetra.
The fluorescence in each well was normalized to the fluorescence of negative and positive control wells. […] The responses to glutamate as functions of the test compound concentrations were fitted to a four-parameter logistic function. The fitted parameter corresponding to the midpoint was taken to be the potency of inhibition of the compound.

Chain of GluA1o-γ8 (GRIA1o-CACNG8 fusion construct; TARP γ8 dependent AMPA receptor) (P42261 other isoform, or with tags, fused parts or gaps): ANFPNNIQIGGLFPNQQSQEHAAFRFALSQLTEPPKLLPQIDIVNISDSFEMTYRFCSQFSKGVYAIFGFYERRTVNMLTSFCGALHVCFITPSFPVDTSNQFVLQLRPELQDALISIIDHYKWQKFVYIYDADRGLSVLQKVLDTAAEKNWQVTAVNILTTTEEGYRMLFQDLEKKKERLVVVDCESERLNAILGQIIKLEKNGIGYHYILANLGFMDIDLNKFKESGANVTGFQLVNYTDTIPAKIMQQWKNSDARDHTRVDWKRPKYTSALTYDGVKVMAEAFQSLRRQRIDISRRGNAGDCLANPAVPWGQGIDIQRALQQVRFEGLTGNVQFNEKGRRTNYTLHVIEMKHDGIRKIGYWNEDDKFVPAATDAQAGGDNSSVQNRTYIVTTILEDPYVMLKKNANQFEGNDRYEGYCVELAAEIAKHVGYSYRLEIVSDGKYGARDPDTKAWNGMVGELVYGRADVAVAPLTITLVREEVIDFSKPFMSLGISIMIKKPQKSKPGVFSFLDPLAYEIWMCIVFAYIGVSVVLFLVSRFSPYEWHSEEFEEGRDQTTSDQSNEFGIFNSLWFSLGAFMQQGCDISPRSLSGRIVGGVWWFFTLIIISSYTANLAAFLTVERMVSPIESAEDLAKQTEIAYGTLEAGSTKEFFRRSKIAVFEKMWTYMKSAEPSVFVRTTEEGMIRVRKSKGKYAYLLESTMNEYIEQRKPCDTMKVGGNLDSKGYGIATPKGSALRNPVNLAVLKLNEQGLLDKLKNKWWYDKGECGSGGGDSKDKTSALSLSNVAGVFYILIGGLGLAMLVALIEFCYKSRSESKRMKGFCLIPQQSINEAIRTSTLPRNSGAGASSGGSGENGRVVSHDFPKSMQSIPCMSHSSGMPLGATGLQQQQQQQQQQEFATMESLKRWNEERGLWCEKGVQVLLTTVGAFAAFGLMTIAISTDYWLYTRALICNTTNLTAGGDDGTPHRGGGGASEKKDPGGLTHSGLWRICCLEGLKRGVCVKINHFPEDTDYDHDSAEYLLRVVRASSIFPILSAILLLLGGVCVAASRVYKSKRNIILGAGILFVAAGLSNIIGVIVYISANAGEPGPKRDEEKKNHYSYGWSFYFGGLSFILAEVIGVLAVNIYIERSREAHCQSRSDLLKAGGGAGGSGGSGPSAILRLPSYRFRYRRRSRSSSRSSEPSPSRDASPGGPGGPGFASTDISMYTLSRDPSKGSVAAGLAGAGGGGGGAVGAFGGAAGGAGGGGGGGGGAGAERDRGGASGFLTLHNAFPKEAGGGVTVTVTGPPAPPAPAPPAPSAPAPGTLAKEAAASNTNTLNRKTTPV

IC50	SMILES
3.98 nM	N#CC1CN(c2nccn3c(-c4ccc5c(c4)CC(=O)N5)c(-c4ccc(F)cc4)nc23)C1 [Example 66, 1-[2-(4-Fluorophenyl)-3-(2-oxoindolin-5-yl)imidazo[1,2-a]pyrazin-8-yl]azetidine-3-carbonitrile]
1.26 nM	CC1(O)CN(c2nccn3c(-c4ccc5c(c4)CC(=O)N5)c(-c4ccc(F)cc4)nc23)C1 [Example 67, 5-[2-(4-Fluorophenyl)-8-(3-hydroxy-3-methyl-azetidin-1-yl)imidazo[1,2-a]pyrazin-3-yl]indolin-2-one]
0.1 nM	CC1(O)CCN(c2nccn3c(-c4ccc5c(c4)CC(=O)N5)c(-c4ccc(F)cc4)nc23)CC1 [Example 68, 5-[2-(4-Fluorophenyl)-8-(4-hydroxy-4-methyl-1-piperidyl)imidazo[1,2-a]pyrazin-3-yl]indolin-2-one]
1 nM	O=C1Cc2cc(-c3c(-c4ccc(F)cc4)nc4c(N5CC(O)(C(F)(F)F)C5)nccn34)ccc2N1 [Example 69, 5-[2-(4-Fluorophenyl)-8-[3-hydroxy-3-(trifluoromethyl)azetidin-1-yl]imidazo[1,2-a]pyrazin-3-yl]indolin-2-one]
0.251 nM	O=C1Cc2cc(-c3c(-c4ccc(F)cc4)nc4c(N5CCC(O)C(F)(F)C5)nccn34)ccc2N1 (centres unmarked) [Example 71, 5-[8-(3,3-Difluoro-4-hydroxy-1-piperidyl)-2-(4-fluorophenyl)imidazo[1,2-a]pyrazin-3-yl]indolin-2-one]
0.126 nM	COC1CCN(c2nccn3c(-c4ccc5c(c4)CC(=O)N5)c(-c4ccc(F)cc4)nc23)CC1 [Example 72, 5-[2-(4-Fluorophenyl)-8-(4-methoxy-1-piperidyl)imidazo[1,2-a]pyrazin-3-yl]indolin-2-one]
0.0794 nM	O=C1Cc2cc(-c3c(-c4ccc(F)cc4)nc4c(N5CCC(F)CC5)nccn34)ccc2N1 [Example 74, 5-[2-(4-Fluorophenyl)-8-(4-fluoro-1-piperidyl)imidazo[1,2-a]pyrazin-3-yl]indolin-2-one]
0.0631 nM	O=C1Cc2cc(-c3c(-c4ccccc4)nc4c(N5CCC(F)CC5)nccn34)ccc2N1 [Example 75, 5-[8-(4-Fluoro-1-piperidyl)-2-phenyl-imidazo[1,2-a]pyrazin-3-yl]indolin-2-one]
0.251 nM	O=C1Cc2cc(-c3c(-c4ccccc4)nc4c(N5CCC(CF)CC5)nccn34)ccc2N1 [Example 76, 5-[8-[4-(Fluoromethyl)-1-piperidyl]-2-phenyl-imidazo[1,2-a]pyrazin-3-yl]indolin-2-one]
0.398 nM	O=C1Cc2cc(-c3c(-c4ccccc4)nc4c(N5CCC(CCF)CC5)nccn34)ccc2N1 [Example 77, 5-[8-[4-(2-Fluoroethyl)-1-piperidyl]-2-phenyl-imidazo[1,2-a]pyrazin-3-yl]indolin-2-one]
2 nM	COC1CN(c2nccn3c(-c4ccc5c(c4)CC(=O)N5)c(-c4ccccc4)nc23)C1 [Example 78, 5-[8-(3-Methoxyazetidin-1-yl)-2-phenyl-imidazo[1,2-a]pyrazin-3-yl]indolin-2-one]
0.631 nM	O=C1Cc2cc(-c3c(-c4ccccc4)nc4c(N5CC6(CC6)C5)nccn34)ccc2N1 [Example 80, 5-[8-(5-Azaspiro[2.3]hexan-5-yl)-2-phenyl-imidazo[1,2-a]pyrazin-3-yl]indolin-2-one]
0.398 nM	O=C1Cc2cc(-c3c(-c4ccccc4)nc4c(N5CC(F)C5)nccn34)ccc2N1 [Example 81, 5-[8-(3-Fluoroazetidin-1-yl)-2-phenyl-imidazo[1,2-a]pyrazin-3-yl]indolin-2-one]
0.316 nM	O=c1[nH]c2ccc(-c3c(-c4ccc(F)cc4)nc4c(N5CCOCC5)ncc(Cl)n34)cc2[nH]1 [Example 82, 5-[5-Chloro-2-(4-fluorophenyl)-8-morpholino-imidazo[1,2-a]pyrazin-3-yl]-1,3-dihydrobenzimidazol-2-one]
63.1 nM	Oc1ccc(-c2c(-c3ccccc3F)nc3c(N4CCOCC4)nccn23)cc1 [Example 84, 4-[2-(2-Fluorophenyl)-8-morpholino-imidazo[1,2-a]pyrazin-3-yl]phenol]
200 nM	Oc1ccc(-c2c(C3CCCCC3)nc3c(N4CCOCC4)nccn23)cc1 [Example 85, 4-(2-Cyclohexyl-8-morpholino-imidazo[1,2-a]pyrazin-3-yl)phenol]

IC50	SMILES
158 nM	CC(C)(C)c1nc2c(N3CCOCC3)nccn2c1-c1ccc2c(c1)CC(=O)N2 [Example 86, 5-(2-tert-Butyl-8-morpholino-imidazo[1,2-a]pyrazin-3-yl)indolin-2-one]
398 nM	Nc1nccn2c(-c3ccc4[nH]c(=O)[nH]c4c3)c(-c3ccc(F)cc3)nc12 [Example 87, 5-[8-Amino-2-(4-fluorophenyl)imidazo[1,2-a]pyrazin-3-yl]-1,3-dihydrobenzimidazol-2-one]
126 nM	CC(C)(C)c1nc2c(N3CCC(O)CC3)nccn2c1-c1ccc2c(c1)CC(=O)N2 [Example 88, 5-[2-tert-Butyl-8-(4-hydroxy-1-piperidyl)imidazo[1,2-a]pyrazin-3-yl]indolin-2-one]
200 nM	O=C1Cc2cc(-c3c(-c4ccncc4)nc4c(N5CC(F)C5)nccn34)ccc2N1 [Example 89, 5-[8-(3-Fluoroazetidin-1-yl)-2-(4-pyridyl)imidazo[1,2-a]pyrazin-3-yl]indolin-2-one]
200 nM	O=C1Cc2cc(-c3c(C4CCC4)nc4c(N5CCOCC5)nccn34)ccc2N1 [Example 90, 5-(2-Cyclobutyl-8-morpholino-imidazo[1,2-a]pyrazin-3-yl)indolin-2-one]
501 nM	O=C1Cc2cc(-c3c(C4CC4)nc4c(N5CCOCC5)nccn34)ccc2N1 [Example 91, 5-(2-Cyclopropyl-8-morpholino-imidazo[1,2-a]pyrazin-3-yl)indolin-2-one]
25.1 nM	CC(=O)N1CCCN(c2nccn3c(-c4ccc(O)cc4)c(-c4ccc(Cl)cc4)nc23)CC1 [Example 92, 1-[4-[2-(4-Chlorophenyl)-3-(4-hydroxyphenyl)imidazo[1,2-a]pyrazin-8-yl]-1,4-diazepan-1-yl]ethanone]
31.6 nM	CC(=O)NC1CCN(c2nccn3c(-c4ccc(O)cc4)c(-c4ccc(Cl)cc4)nc23)CC1 [Example 93, N-[1-[2-(4-Chlorophenyl)-3-(4-hydroxyphenyl)imidazo[1,2-a]pyrazin-8-yl]-4-piperidyl]acetamide]
3.16 nM	CC(=O)N1CCN(c2nccn3c(-c4ccc(O)cc4)c(-c4ccc(Cl)cc4)nc23)CC1 [Example 94, 1-[4-[2-(4-Chlorophenyl)-3-(4-hydroxyphenyl)imidazo[1,2-a]pyrazin-8-yl]piperazin-1-yl]ethanone]
31.6 nM	N#Cc1ccc(-c2nc3c(N4CCOCC4)nccn3c2-c2ccc(O)cc2)cc1 [Example 95, 4-[3-(4-Hydroxyphenyl)-8-morpholino-imidazo[1,2-a]pyrazin-2-yl]benzonitrile]
20 nM	Oc1ccc(-c2c(Cc3cccc(F)c3)nc3c(N4CCOCC4)nccn23)cc1 [Example 96, 4-[2-[(3-Fluorophenyl)methyl]-8-morpholino-imidazo[1,2-a]pyrazin-3-yl]phenol]
3.98 nM	N#Cc1ccc(-c2nc3c(N4CCOCC4)nccn3c2-c2ccc3[nH]ncc3c2)cc1 [Example 97, 4-[3-(1H-Indazol-5-yl)-8-morpholino-imidazo[1,2-a]pyrazin-2-yl]benzonitrile]
2.51 nM	CC(=O)N[C@H]1CCN(c2nccn3c(-c4ccc5[nH]c(=O)[nH]c5c4)c(-c4ccc(F)cc4)nc23)C1 [Example 98, N-[(3S)-1-[2-(4-Fluorophenyl)-3-(2-oxo-1,3-dihydrobenzimidazol-5-yl)imidazo[1,2-a]pyrazin-8-yl]pyrrolidin-3-yl]acetamide]
25.1 nM	COc1nccn2c(-c3ccc4[nH]c(=O)[nH]c4c3)c(-c3ccc(F)cc3)nc12 [Example 99, 5-[2-(4-Fluorophenyl)-8-methoxy-imidazo[1,2-a]pyrazin-3-yl]-1,3-dihydrobenzimidazol-2-one]
12.6 nM	CC(=O)N[C@@H]1CCN(c2nccn3c(-c4ccc5[nH]c(=O)[nH]c5c4)c(-c4ccc(F)cc4)nc23)C1 [Example 100, N-[(3R)-1-[2-(4-Fluorophenyl)-3-(2-oxo-1,3-dihydrobenzimidazol-5-yl)imidazo[1,2-a]pyrazin-8-yl]pyrrolidin-3-yl]acetamide]

SMILES	IC50
O=C1Cc2cc(-c3c(-c4ccccc4)nc4c(N5CC6CC(C5)O6)nccn34)ccc2N1 [Example 79, 5-[8-(6-Oxa-3-azabicyclo[3.1.1]heptan-3-yl)-2-phenyl-imidazo[1,2-a]pyrazin-3-yl]indolin-2-one]	0.501 nM
